Holding throughout (format): biochemical
In assay [1] the target is T1, Cynomolgus Monkey Testicular C17-20 Lyase (Macaca fascicularis, UniProt Q2XVA1).
T1 construct: Microsomes are isolated from human or cynomolgus monkey tissue; from tissue; host or cells: cynomolgus monkey testis, microsomes
T1 sequence (Q2XVA1 1-508): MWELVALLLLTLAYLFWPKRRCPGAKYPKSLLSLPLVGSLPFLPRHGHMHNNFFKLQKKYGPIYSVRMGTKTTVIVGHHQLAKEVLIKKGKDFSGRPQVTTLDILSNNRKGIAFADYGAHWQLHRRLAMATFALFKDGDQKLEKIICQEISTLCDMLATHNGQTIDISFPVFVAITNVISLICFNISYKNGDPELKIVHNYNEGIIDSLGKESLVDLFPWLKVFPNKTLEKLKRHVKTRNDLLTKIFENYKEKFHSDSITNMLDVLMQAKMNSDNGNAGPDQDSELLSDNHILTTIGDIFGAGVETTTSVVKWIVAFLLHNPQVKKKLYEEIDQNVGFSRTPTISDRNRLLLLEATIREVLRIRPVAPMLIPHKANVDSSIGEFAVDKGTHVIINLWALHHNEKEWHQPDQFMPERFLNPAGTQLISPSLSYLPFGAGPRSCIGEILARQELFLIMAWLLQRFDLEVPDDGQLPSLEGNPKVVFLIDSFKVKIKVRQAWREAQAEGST
The assay can be described thus: Screen for inhibition of cynomolgus monkey testicular C17-20 lyase by compounds of formula (II). The protocol: (§1) Utilizing an in vitro assay, the activity of the compounds of formulas (I) and (II) as inhibitors of steroid C17-20 lyase are established using microsomal preparations of the enzyme from human or cynomolgus monkey testicular tissue. Human testes were acquired from therapeutic orchiectomies. Microsomes are isolated from human or cynomolgus monkey tissue. The compound to be tested is dissolved in dimethyl sulfoxide and diluted in 0.05M potassium phosphate buffer, pH 7.4, to give the desired concentrations of test compound. Assays contain an NADPH regenerating system comprised of 1 mM NADPH, 5 mM glucose-6-phosphate, 1 IU/mL glucose-6-phosphate dehydrogenase and microsomal protein in a total volume of 0.2 mL. Control assays contain all components, including dimethyl sulfoxide, but no test compound. All assays are performed in duplicate. For determination of time dependent C17-20 lyase inactivation, the test compound is incubated with 20 to 62 μg/mL microsomal protein, buffer and the NADPH regenerating system described above at 34° C. for 0 or 40 minutes. Aliquots of 180 μL are then removed and assayed for enzyme activity by addition to 7-^3 H-17α-hydroxypregnenolone (11.2 mCi/mmole; 0.2 μCi per assay) plus unlabeled 17α-hydroxypregnenolone to give a total substrate concentration of 1.0 μM or 0.3 μM per assay and are subsequently incubated at 34° C. for 6 minutes. For determination of reversible inhibition by the test compound, the reaction is initiated by the addition of substrate, 7-^3 H-17α-hydroxypregnenolone (11.2 mCi/mmole; 0.20 μCi per assay) plus unlabeled 17α-hydroxypregnenolone to yield a final concentration of 0.3 μM (=Km), to the other assay components. The complete assay is incubated at 34° C. for 6 minutes. Each assay is terminated by addition of 5 mL of chloroform/methanol (2:1). Carrier steroids representing substrates and products (17α-hydroxypregnenolone, dehydroepiandrosterone, and androst-5-ene-3β,17β-diol and 0.8 mL of distilled, deionized water are also added at this time. The steroids are extracted by the method of Moore and Wilson (Methods in Enzymol., eds. O'Malley, B. W. and Hardman, J. G. 36, 1975, pp.466-474). The organic phase containing the steroids is evaporated using nitrogen gas, the residue is dissolved in 18% tetrahydrofuran (v/v) in hexane and the steroids are separated by HPLC on an Si60 (5 μm) column (250×4 mm) using a gradient of 18-22% tetrahydrofuran (v/v) in hexane. Radioactivity in the steroid peaks is measured using a Radiometric Model HS or Model A515 Flo-One detector.
(§2) The enzyme activity for each assay is calculated from the percent conversion of substrate to products, and the results are expressed as percent inhibition of control.

In assay [2] the target is T1, Cynomolgus Monkey Testicular C17-20 Lyase. Kind of assay: Screen for time-dependent inhibition / inhibition of cynomolgus monkey testicular C17-20 lyase (microsomal preparation). As for the experimental part:
as §1, §2

In assay [3] the target is T2, Human Testicular C17-20 Lyase (Homo sapiens, UniProt P05093).
T2 construct: Microsomes are isolated from human or cynomolgus monkey tissue; from tissue; host or cells: human testes from therapeutic orchiectomies, microsomes
T2 sequence (P05093 1-508): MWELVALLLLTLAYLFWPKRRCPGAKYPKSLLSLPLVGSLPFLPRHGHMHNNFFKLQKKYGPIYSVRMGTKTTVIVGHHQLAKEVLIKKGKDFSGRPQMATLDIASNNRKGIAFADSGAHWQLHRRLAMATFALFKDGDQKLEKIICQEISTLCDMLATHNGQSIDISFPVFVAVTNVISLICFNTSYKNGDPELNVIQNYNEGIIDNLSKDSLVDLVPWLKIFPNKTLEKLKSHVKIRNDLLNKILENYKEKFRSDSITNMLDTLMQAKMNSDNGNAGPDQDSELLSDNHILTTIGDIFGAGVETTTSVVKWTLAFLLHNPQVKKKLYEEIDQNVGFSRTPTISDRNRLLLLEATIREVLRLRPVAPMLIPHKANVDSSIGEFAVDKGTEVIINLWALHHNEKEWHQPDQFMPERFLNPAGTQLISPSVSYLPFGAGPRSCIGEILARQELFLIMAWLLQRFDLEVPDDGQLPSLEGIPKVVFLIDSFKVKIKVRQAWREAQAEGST
Kind of assay: Screen for time-dependent inhibition of human testicular C17-20 lyase (microsomal preparation). The protocol:
as §1, §2

SMILES strings stand for the structures.

Turning to `C[C@]12CC[C@H](O)CC1=CC[C@@H]1[C@@H]2CC[C@]2(C)C(c3cccs3)=CC[C@@H]12` [17-(2-thienyl)androsta-5,16-dien-3β-ol, (3β)-17-(2-thienyl)-androsta-5,16-dien-3-ol], in assay [1], testing at 0.1 µM gave an inhibition of 43% and 1 µM produced 75% inhibition.

For the compound `C[C@]12CC[C@H](O)CC1=CC[C@@H]1[C@@H]2CC[C@]2(C)C(c3ccoc3)=CC[C@@H]12` [17-(3-furanyl)androsta-5,16-dien-3β-ol, (3β)-17-(3-furanyl)-androsta-5,16-dien-3-ol], in assay [1], the inhibition (commonly the percentage by which the read-out fell short of the control) at 0.1 µM amounted to 53% and the inhibition at 1 µM was found to be 91%.

For the compound `C[C@]12CC[C@H](O)CC1=CC[C@@H]1[C@@H]2CC[C@]2(C)C(c3ccco3)=CC[C@@H]12` [17-(2-furanyl)androsta-5,16-dien-3β-ol, (3β)-17-(2-furanyl)-androsta-5,16-dien-3-ol], in assay [1], the inhibition at 0.1 µM is 10% and at 1 µM the inhibition was 72%.

Consider `CNc1nc(C2=CC[C@H]3[C@@H]4CC=C5C[C@@H](O)CC[C@]5(C)[C@H]4CC[C@]23C)cs1` [(3β)-17-[2-(methylamino)-4-thiazolyl]-androsta-5,16-dien-3-ol.HBr], for which, in assay [2] (preincubation 0 min), the inhibition at 1 µM amounted to 28% and the inhibition at 10 µM was determined as 40%. In assay [2] (preincubation 40 min), this compound displayed an inhibition at 1 µM of 26% and an inhibition at 10 µM of 80%.

With `C[C@]12CC[C@H](O)CC1=CC[C@@H]1[C@@H]2CC[C@]2(C)C(c3ccsc3)=CC[C@@H]12` [17-(3-thienyl)androsta-5,16-dien-3β-ol, (3β)-17-(3-thienyl)-androsta-5,16-dien-3-ol], in assay [1], the inhibition at 0.1 µM was found to be 21% and 1 µM produced 42% inhibition.

Consider `C[C@]12CC[C@H](O)CC1=CC[C@@H]1[C@@H]2CC[C@]2(C)C(c3csc(N)n3)=CC[C@@H]12` [(3β)-17-(2-amino-4-thiazolyl)-androsta-5,16-dien-3-ol.HBr.CH3 CH2 OH], for which the inhibition at 1 µM in assay [3] (preincubation 0 min) came out at 44%; in assay [3] (preincubation 40 min) it was 32%. Further, the inhibition at 10 µM was determined as 62% in assay [3] (preincubation 0 min) and 29% in assay [3] (preincubation 40 min).

Consider `C[C@]12CCC(=O)CC1=CC[C@@H]1[C@@H]2CC[C@]2(C)C(c3csc(N)n3)=CC[C@@H]12` [17-(2-amino-4-thiazolyl)-androsta-5,16-dien-3-one], for which, in assay [2] (preincubation 0 min), testing at 1 µM gave an inhibition of 66% and the inhibition at 10 µM worked out at 92%.

The values above are taken from US5677293A, “16 unsaturated C17 heterocyclic steroids useful as steroid C17-20 lyase inhibitors” (Merrell Pharmaceuticals Inc., priority 1996, dated 1997).
